Results reported in patent US6656931B2, “Vasopressin antagonist and diuretic combination” (Wyeth Holdings Corporation, priority 1999, dated 2003).
Where two headings read alike, the source gives them in different places.

Tests used:
healthy men = assay: Human single dose crossover drug interaction study, pharmacodynamics (urine flow, electrolytes); format: in vivo; settings: for mean urine volume: 0 to 4 h interval, single oral doses VPA-985 75 mg; for mean urine volume / peak urine flow: furosemide 40 mg, or both; for peak urine flow: single oral doses: VPA-985 75 mg
Protocol: (§1) The study lasted approximately 30 days, and included a pre-enrollment evaluation of up to 2 weeks before dose administration, and three 2-day (2-night) confinement periods. The doses were separated by at least a 1 week interval. The clinical portion of the study was completed in approximately 2 months.
(§2) The VPA-985 suspension (25 mg and 50 mg powder reconstituted) was administered in 150 mL of Sprite® brand lemon-lime soda (a product of The Coca-Cola Company) followed by 100 mL of room-temperature water (250 mL of fluid total).
(§3) Areas under concentration-time curves(AUCT) (AUC) and AUC truncated at the last observed concentration (CT)AUCT) were determined by using the linear/log trapezoidal method. Statistical comparisons were made using by an analysis of variance (ANOVA). Confidence limits (90%) for pharmacokinetic parameters were constructed on a log scale using the two one-sided tests procedure. An interaction was judged to be significant if a 35% difference was detected between either single agent and the two drugs administered concomitantly.

[1] = Human single dose crossover drug interaction study, pharmacokinetics; format: in vivo
Protocol: as §1, §2, §3

[2] = tested on: renal function in anesthetized rats; settings: for Na+ excretion / free water clearance / urine flow rate / urine osmolality: anesthetized rats; for glomerular filtration rate (GFR): rat, in vivo
Protocol: NaCl reabsorption in the thick ascending limb of the Loop of Henle (TALH) creates free water that is reabsorbed in the collecting duct in the presence of vasopressin. […] Either V (3 mg/kg), F (5 mg/kg), both V and F (V/F) or the vehicles were administered intraduodenally.

[3] = VPA-985 75 mg administered with furosemide 40 mg
[4] = after intraduodenal administration (V 3 mg/kg, F 5 mg/kg)
[5] = baseline, before compound administration
[6] = after coadministration with VPA-985 75 mg

Cc1ccc(F)cc1C(=O)Nc1ccc(C(=O)N2Cc3cccn3Cc3ccccc32)c(Cl)c1 [VPA-985, N-[4-(5H-pyrrolo[2,1-c][1,4]benzodiazepin-10(11H)ylcarbonyl)-3-chlorophenyl]-5-fluoro-2-methyl-benzamide]
mean urine volume (healthy men): 1157 mL | increase in mean serum sodium (healthy men; 0 to 4 hours after the dose): 2 mmol/L | 0 to 4 h urinary excretion of sodium, potassium, chloride and magnesium (healthy men; VPA-985 alone compared with VPA-985 and furosemide administered concomitantly): significantly less | tmax of peak effect in urine flow (healthy men; after administration of single doses, healthy men): approximately 1.5 h | effect on serum potassium (healthy men; single oral dose VPA-985 75 mg alone): did not alter | peak urine flow (healthy men; healthy men): 8.4 mL/min | AUCs of VPA-985, compared to VPA-985 alone [1, 3]: no differences | Cmax of VPA-985, compared to VPA-985 alone [1, 3]: no differences | AUC ([1]; male, human, in vivo, single oral dose VPA-985 75-mg suspension alone, healthy men): 0.968 µg·h/mL | Cmax ([1]; male, human, in vivo, single oral dose VPA-985 75-mg suspension alone, healthy men, read-out: mean peak concentration (Cmax) of VPA-985): 0.617 µg/mL | Tmax ([1]; male, human, in vivo, single oral dose VPA-985 75-mg suspension alone, healthy men, read-out: mean time of peak concentration (tmax) of VPA-985): < 1 h | Na+ excretion [2, 4]: 0.67±0.34 μEq/min | free water clearance [2, 4]: -6.96 ± 5.17 µL/min | urine flow rate [2, 4]: 19.51 ± 3.80 µL/min | urine osmolality [2, 4]: 571±145 mOsm/kg | Na+ excretion [2, 5]: 0.10±0.02 μEq/min | free water clearance [2, 5]: -17.31 ± 1.84 µL/min | urine flow rate [2, 5]: 5.26 ± 1.13 µL/min | urine osmolality [2, 5]: 1456±166 mOsm/kg | glomerular filtration rate (GFR) [2]: 2.04 ± 0.15 mL/min

NS(=O)(=O)c1cc(C(=O)O)c(NCc2ccco2)cc1Cl [furosemide, reference compound]
mean urine volume (healthy men): 1524 mL | serum potassium (healthy men; at 0 h): 4.2 mmol/L | serum potassium (healthy men; at 4 hours after the dose): 3.9 mmol/L | peak urine flow (healthy men; healthy men): 9.3 mL/min | CLr of furosemide, versus furosemide alone [1, 6]: no difference | amount of furosemide recovered from urine (Ut), versus furosemide alone [1, 6]: no difference | urine flow rate [2, 4]: 17.02 ± 4.86 µL/min | urine osmolality [2, 4]: 699±69 mOsm/kg | urine flow rate [2, 5]: 3.74 ± 0.18 µL/min | urine osmolality [2, 5]: 1515±96 mOsm/kg | glomerular filtration rate (GFR) [2]: 1.87 ± 0.15 mL/min
